As a reminder, the IC50 is the concentration at which inhibition is half-maximal. The inhibition is the relative decrease from the control value, in per cent.

Assay [1] has as its system GBA2 (GBA2-overexpressing HEK293T lysate). Conditions: cited from earlier work.
The target of assay [2] is T1, recombinant human GAA (rhGAA, Myozyme) (Homo sapiens, UniProt P10253).
T1 construct: purchased Genzyme
The assay can be described thus: competitive FluoPol-ABPP assay on rhGAA with TAMRA-ABP II.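 Note: fluorescence polarization read at 540 nm excitation and 590 nm emission, background-corrected, normalized to uninhibited probe labelling as 100% and excess cyclosulfate as 0%.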 Conditions: library screen, 5 μM inhibitor, 25 nM ABP II. The class given is biochemical.

For assay [3], the system named is glucosylceramide synthase (GCS) (RAW 264.7 cells). The note with it: in situ; cited from earlier work.
The subject of assay [4] is rhGBA1 (Cerezyme). Conditions: read-out: IC50 GBA1; cited from earlier work.
The target of assay [5] is T2, ER α-glucosidase GANAB (from Pompe disease Fibroblast lysates) (Homo sapiens, UniProt Q14697).
T2 construct: Cellular homogenates of Pompe fibroblasts (1 mg mL^−1) were used as protein source for GANAB; endogenous in cells; host or cells: Pompe disease fibroblasts (homogenate)
T2 sequence (Q14697 29-944): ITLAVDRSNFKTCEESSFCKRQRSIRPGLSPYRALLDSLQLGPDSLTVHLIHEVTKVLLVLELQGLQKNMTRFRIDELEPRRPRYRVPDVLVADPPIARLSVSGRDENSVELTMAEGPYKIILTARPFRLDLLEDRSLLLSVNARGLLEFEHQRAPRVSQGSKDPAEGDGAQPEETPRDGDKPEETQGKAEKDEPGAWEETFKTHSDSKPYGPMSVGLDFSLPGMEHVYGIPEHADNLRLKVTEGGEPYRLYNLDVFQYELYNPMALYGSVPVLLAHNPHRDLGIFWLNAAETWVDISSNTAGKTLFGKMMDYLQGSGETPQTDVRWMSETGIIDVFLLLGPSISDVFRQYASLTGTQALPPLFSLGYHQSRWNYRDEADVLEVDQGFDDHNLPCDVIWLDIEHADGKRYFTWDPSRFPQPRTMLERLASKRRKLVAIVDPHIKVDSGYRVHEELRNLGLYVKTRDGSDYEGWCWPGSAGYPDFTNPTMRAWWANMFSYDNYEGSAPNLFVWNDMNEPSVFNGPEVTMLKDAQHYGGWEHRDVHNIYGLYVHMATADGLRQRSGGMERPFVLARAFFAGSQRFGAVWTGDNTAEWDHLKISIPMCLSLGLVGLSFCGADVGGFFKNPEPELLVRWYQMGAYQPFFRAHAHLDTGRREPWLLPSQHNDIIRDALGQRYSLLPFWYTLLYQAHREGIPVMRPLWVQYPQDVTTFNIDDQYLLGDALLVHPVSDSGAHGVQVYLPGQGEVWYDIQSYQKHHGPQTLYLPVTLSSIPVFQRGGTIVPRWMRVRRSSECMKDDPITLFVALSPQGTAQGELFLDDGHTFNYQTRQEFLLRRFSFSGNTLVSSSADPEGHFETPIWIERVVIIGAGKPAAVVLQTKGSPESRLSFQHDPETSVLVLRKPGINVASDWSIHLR
T2 sequence (P14314 15-528 partner): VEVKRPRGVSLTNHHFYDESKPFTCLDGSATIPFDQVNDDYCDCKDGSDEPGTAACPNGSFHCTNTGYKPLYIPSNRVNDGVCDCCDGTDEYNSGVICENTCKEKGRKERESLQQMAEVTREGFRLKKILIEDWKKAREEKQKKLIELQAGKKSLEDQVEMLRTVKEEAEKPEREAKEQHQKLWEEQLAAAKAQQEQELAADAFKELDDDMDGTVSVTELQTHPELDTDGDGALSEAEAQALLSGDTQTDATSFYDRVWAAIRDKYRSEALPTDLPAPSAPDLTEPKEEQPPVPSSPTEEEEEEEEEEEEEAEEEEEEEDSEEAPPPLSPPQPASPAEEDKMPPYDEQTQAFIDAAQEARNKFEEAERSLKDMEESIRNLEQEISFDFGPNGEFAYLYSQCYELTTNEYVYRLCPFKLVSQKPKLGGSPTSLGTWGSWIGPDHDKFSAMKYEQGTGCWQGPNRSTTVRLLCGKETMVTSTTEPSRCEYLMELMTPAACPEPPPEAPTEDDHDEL
The assay can be described thus: fluorogenic substrate (4MU-α-D-glucopyranoside) assay on GANAB in Pompe fibroblast homogenates.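 Note: inhibitor preincubated 30 min at 37 °C with homogenate, then GANAB activity read after 2 h with 3.0 mM fluorogenic substrate in McIlvaine buffer containing 0.1% BSA.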 Type of assay: biochemical.

Assay [6] addresses T3, human recombinant lysosomal α-glucosidase GAA (Myozyme) (Homo sapiens, UniProt P10253).
T3 construct: purchased Genzyme
The assay can be described thus: fluorogenic substrate (4MU-α-D-glucopyranoside) assay on rhGAA. The class given is biochemical. Conditions: Table S2; 4-MU alpha glucoside substrate; read-out: IC50 on rhGAA.

In assay [7] the target is T4, recombinant human GBA1 (rhGBA1, Cerezyme) (Homo sapiens, UniProt P04062, R534H).
T4 construct: purchased Genzyme
T4 sequence (P04062 40-536 R534H): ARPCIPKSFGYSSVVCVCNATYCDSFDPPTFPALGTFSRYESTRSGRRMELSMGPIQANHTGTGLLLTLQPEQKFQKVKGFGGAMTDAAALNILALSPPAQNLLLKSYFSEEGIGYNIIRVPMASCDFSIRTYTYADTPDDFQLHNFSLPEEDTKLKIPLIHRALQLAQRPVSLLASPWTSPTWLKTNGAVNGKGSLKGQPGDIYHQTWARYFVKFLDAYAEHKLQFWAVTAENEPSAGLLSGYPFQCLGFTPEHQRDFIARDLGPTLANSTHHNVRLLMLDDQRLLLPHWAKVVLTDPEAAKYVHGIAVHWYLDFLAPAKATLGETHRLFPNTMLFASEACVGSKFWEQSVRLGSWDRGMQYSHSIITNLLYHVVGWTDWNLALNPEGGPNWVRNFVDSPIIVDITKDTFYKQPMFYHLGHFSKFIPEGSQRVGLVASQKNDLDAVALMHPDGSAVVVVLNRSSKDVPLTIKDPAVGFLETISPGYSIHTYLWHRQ
The assay can be described thus: competitive FluoPol-ABPP assay on rhGBA1 with TAMRA-ABP I. The class given is biochemical. The note with it: library screen, 5 μM inhibitor, 5 nM ABP I.

Assay [8] deals with retaining β-glucosidases GBA1, GBA2 and GBA3. The assay can be described thus: SDS-gel activity-based protein profiling (in-gel fluorescence labelling). The class given is biochemical. The note with it: 500 nM probe, 30 min 37 °C. How it is done: Lysates of HEK293T GBA2 overexpressing and HEK293T GBA3 overexpressing cells[24] were prepared in 150 mM McIlvain buffer (pH = 5.0), supplemented with 0.25 M sucrose, 0.2% sodium taurocholate (w/v) and 0.1% Triton X-100 (v/v). The lysates were homogenized using sonication, after which the total protein concentration was determined via Pierce BCA Protein assay (ThermoFisher) using BSA (ThermoFisher) for standards. Samples (Vf = 20 μL) of an 1 : 1 mixture of GBA2 : GBA3 lysates containing 40 μg protein were incubated for 30 min at 37 °C with 500 nM ABP. Protein content was denatured using Laemmli Buffer (4×) at 98 °C for 5 min. Reactions were resolved by 7.5% SDS-PAGE electrophoresis and wet slabs were scanned for fluorescence (Typhoon FLA 9500, GE Healthcare).

Setting [9] is: 4MU-α-glucoside substrate, pH 7.0, mean ± SD, 3 technical replicates, read-out: IC50 GANAB.
The mark [10] stands for this setting: Table S2, 4-MU alpha glucoside substrate, read-out: IC50 on GANAB.

The structures appear in SMILES notation. Like-named read-outs stand apart in the source and are kept apart here. Bounds are passed on as bounds.

`OC[C@@H]1[C@@H](O)[C@H](O)[C@@H](O)CN1CCCCCOCc1cc2ccccc2c2ccccc12` [Compound 15]: the IC50 in assay [1] is 100 nM; in assay [3] it was more than 20000 nM; in assay [4] it was 10000 nM; in assay [5] (setting [9]), 1960 ± 40 nM; in assay [5] (setting [10]), 2000 nM; in assay [6] it was 110 nM. Also, the “GAA FP% (residual FP-signal)” value in assay [2] was determined as 25%.

Take `O[C@@H]1[C@@H](O)[C@@H](CCCCCCOCC23CC4CC(CC(C4)C2)C3)NC[C@H]1O` [Compound 7]: in assay [7], the inhibition at 5 µM was more than 90%.

`OC[C@H]1N[C@H](CCCCCOCC23CC4CC(CC(C4)C2)C3)[C@H](O)[C@@H](O)[C@@H]1O` [Compound 14]: the IC50 in assay [1] was 300 nM; in assay [3], 50000 nM; in assay [4], 70 nM; in assay [5] (setting [9]) it was more than 100000 nM; in assay [6] it was 4000 nM. For the same molecule, the “GAA FP% (residual FP-signal)” value in assay [2] was determined as 34%.

Regarding `COC(=O)c1cc(C(=O)NCCCCc2cn(C[C@@H]3[C@@H](O)[C@H](O)[C@@H](O)[C@@H]4O[C@H]34)nn2)ccc1-c1c2ccc(=[N+](C)C)cc-2oc2cc(N(C)C)ccc12` [ABP I], the “β-glucosidase labelling selectivity of the probe” value in assay [8] is on record as “modifies exclusively GBA1”.

Regarding `OC[C@@H]1[C@@H](O)[C@H](O)[C@@H](O)CN1CCCCCOCc1ccccc1` [#ID 139], the “GAA FP% (residual FP-signal)” value in assay [2] was 20%. Besides, the IC50 in assay [5] (setting [10]) turned out to be 9320 nM; in assay [6], 760 nM.

For `OC[C@H]1N[C@H](CCCCCCOCC23CC4CC(CC(C4)C2)C3)[C@H](O)[C@@H](O)[C@@H]1O` [Compound 8], in assay [2], the “GAA FP% (residual FP-signal)” value worked out at 29%. For the same molecule, the inhibition at 5 µM in assay [7] is more than 90%. Also, in assay [6], the IC50 amounted to 2460 nM.

Turning to `OC[C@@H]1[C@@H](O)[C@H](O)[C@@H](O)CN1CCCCCOCc1ccc(-c2cc(C(F)(F)F)cc(C(F)(F)F)c2)cc1` [#ID 308], the “GAA FP% (residual FP-signal)” value in assay [2] is on record as 1.5%. The IC50 in assay [5] (setting [10]) was 14000 nM; in assay [6], 2400 nM.

Turning to `OC[C@@H]1[C@@H](O)[C@H](O)[C@@H](O)CN1CCCCCOCc1ccc(-c2cccnc2)cc1` [#ID 318], the “GAA FP% (residual FP-signal)” value in assay [2] is given as 0.6%. The IC50 in assay [5] (setting [10]) was 1700 nM; in assay [6], 85 nM.

With `OC[C@@H]1[C@@H](O)[C@H](O)[C@@H](O)CN1CCCCCOCCC12CC3CC(CC(C3)C1)C2` [#ID 170], the “GAA FP% (residual FP-signal)” value in assay [2] was 4.1%. Besides, the IC50 in assay [5] (setting [10]) worked out at 1600 nM; in assay [6], 430 nM.

Regarding `OC[C@@H]1[C@@H](O)[C@H](O)[C@@H](O)CN1CCCCCOCc1ccc(-c2ccc3c(c2)OCO3)cc1` [#ID 303], the “GAA FP% (residual FP-signal)” value in assay [2] was determined as 0.1%. The IC50 was found to be 4700 nM in assay [5] (setting [10]) and 140 nM in assay [6].

On to `OC[C@@H]1[C@@H](O)[C@H](O)[C@@H](O)CN1CCCCCOCc1ccccc1-c1ccccc1` [#ID 339], for which the “GAA FP% (residual FP-signal)” value in assay [2] is reported as 0.9%. For the same molecule, the half-maximal inhibitory concentration (IC50) amounted to 620 nM in assay [5] (setting [10]) and 100 nM in assay [6].

Take `OC[C@@H]1[C@@H](O)[C@H](O)[C@@H](O)CN1CCCCCOCc1ccc2ccccc2c1` [#ID 58]: the “GAA FP% (residual FP-signal)” value in assay [2] was determined as 7.7%. For the same molecule, the IC50 in assay [5] (setting [10]) was found to be 850 nM; in assay [6], 250 nM.

As for `OC[C@@H]1[C@@H](O)[C@H](O)[C@@H](O)CN1CCCCCOCc1ccc(-c2ccccc2)c(F)c1` [#ID 37], in assay [2], the “GAA FP% (residual FP-signal)” value came out at 3.6%. Besides, the values for the IC50 in assay [5] (setting [10]) and in assay [6] were 1600 nM and 37 nM, respectively.

Consider `C[C@@H](OCCCCCN1C[C@H](O)[C@@H](O)[C@H](O)[C@H]1CO)c1ccc(-c2ccccc2)cc1` [#ID 345], for which the “GAA FP% (residual FP-signal)” value in assay [2] is recorded as 1.5%. For the same molecule, the IC50 in assay [5] (setting [10]) was 370 nM; in assay [6], 58 nM.

With `OC[C@@H]1[C@@H](O)[C@H](O)[C@@H](O)CN1CCCCCOCc1ccc(-c2ccc(Cl)cc2)cc1` [#ID 314], the “GAA FP% (residual FP-signal)” value in assay [2] came out at 1.7%. Moreover, the IC50 in assay [5] (setting [10]) turned out to be 150 nM; in assay [6] it was 93 nM.

Take `OC[C@@H]1[C@@H](O)[C@H](O)[C@@H](O)CN1CCCCCOCc1ccc(-c2cncnc2)cc1` [#ID 320]: the “GAA FP% (residual FP-signal)” value in assay [2] is reported as 1.0%. Also, the IC50 in assay [5] (setting [10]) came out at 1300 nM; in assay [6] it was 82 nM.

Regarding `C[C@H](OCCCCCN1C[C@H](O)[C@@H](O)[C@H](O)[C@H]1CO)c1ccc(-c2ccccc2)cc1` [#ID 347], the “GAA FP% (residual FP-signal)” value in assay [2] was 0.4%. Moreover, the IC50 turned out to be 400 nM in assay [5] (setting [10]) and 42 nM in assay [6].

As to `OC[C@@H]1[C@@H](O)[C@H](O)[C@@H](O)CN1CCCCCOCc1ccc(-c2ccnc(F)c2)cc1` [#ID 334], the “GAA FP% (residual FP-signal)” value in assay [2] was determined as 1.5%. The IC50 in assay [5] (setting [10]) was 1600 nM; in assay [6], 160 nM.

Turning to `COc1ccc(-c2ccc(COCCCCCN3C[C@H](O)[C@@H](O)[C@H](O)[C@H]3CO)cc2)cc1` [#ID 305], the “GAA FP% (residual FP-signal)” value in assay [2] was 0.3%. In addition, the figures for the IC50 in assay [5] (setting [10]) and in assay [6] were 380 nM and 20 nM, respectively.

The values are drawn from publication PMC10466331, “Fluorescence polarisation activity-based protein profiling for the identification of deoxynojirimycin-type inhibitors selective for lysosomal retaining alpha- and beta-glucosidases” (Chemical Science, 2023).
